Laboratory results from publication PMC12481613, “Boldine as a neuroprotective agent against motor neuron degeneration in models of amyotrophic lateral sclerosis” (Frontiers in Cellular Neuroscience, 2025).

Biological target: T1, connexin 43 (Cx43) hemichannel (Homo sapiens, UniProt P17302)
T1 construct: gene GJA1; human Cx43 tagged with GFP (hCx43-GFP)
Assay: TO-PRO-3 dye uptake in HeLa cells transfected with hCx43-GFP, Ca2+-free HBSS
Type: cell-based

T1 sequence (P17302 2-382): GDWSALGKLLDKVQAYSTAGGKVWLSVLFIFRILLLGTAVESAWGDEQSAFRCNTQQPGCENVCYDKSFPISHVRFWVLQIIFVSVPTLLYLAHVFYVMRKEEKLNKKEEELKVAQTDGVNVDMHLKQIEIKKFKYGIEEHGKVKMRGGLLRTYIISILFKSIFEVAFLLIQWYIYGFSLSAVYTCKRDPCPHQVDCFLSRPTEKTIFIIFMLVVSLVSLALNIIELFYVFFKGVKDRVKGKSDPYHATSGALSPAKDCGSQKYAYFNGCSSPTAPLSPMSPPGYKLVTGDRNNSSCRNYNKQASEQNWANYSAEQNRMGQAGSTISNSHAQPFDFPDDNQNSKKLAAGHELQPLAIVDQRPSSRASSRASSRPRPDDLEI

COc1cc2c(cc1O)C[C@H]1c3c(cc(O)c(OC)c3-2)CCN1C [boldine]
IC50: 12.5 µM
